Experimental data from US11078256B2, “Methods and compositions for inhibiting cancer cell growth” (THE BOARD OF REGENTS OF THE UNIVERSITY OF TEXAS SYSTEM, priority 2018, dated 2021).
Read-outs that look alike come from different tables or passages of the source. No end group written: not given here.

Assays:
Assay type in all cases: cell-based, Human
[1] = system: AU565 breast cancer cell line (Her2/neu and p53 positive)
Protocol: (§1) Experimental design: The experimental design (see FIG. 1) was to seed the HCC38 breast cancer cell line (BCCL) with the p1978 pep-tide in order to determine the effects of the peptide on cell growth. The HCC38 cell line was chosen because of its triple negative receptor status. […] They are more likely to recur than other subtypes of breast cancer.
(§2) The 184B5 (normal breast tissue cells) were seeded to serve as a negative control while the AU565 BCCL, a cell line with a positive Her2/neu and p53 receptor status, was inoculated to serve as a positive control. In the initial phase, treatment cell lines were treated with 8.26 μg/ml of p1978. The con-centration corresponds closely to the average SMR3B (the parent protein of the p1978 peptide), concentration, plus one standard deviation found in healthy breast tissues. A second experiment was performed doubling the concentration of 1978 to 16.52 μg/ml. FIG. 1 represents a schematic of the design used for the study.
(§3) Corresponding unseeded cell lines served as controls. The controls were treated with a placebo containing 1.0 ml of sterile PBS (for cell culture). An expanded dose-response experiment was not performed due to limited resources. The experiment ended 48 hours after seeding. The outcome variables of this study were total cell count, live cell count and percent viability.
(§4) Cell lines: Human breast cell lines HCC38 (HCC38 BL (ATCC® CRL-2346™), AU565 (ATCC® CRL2351™) and 184B5 (ATCC® CRL-8799™) were purchased from the American Type Culture Collection. Cell line descriptions are summarized in Table 1.
(§5) Cell growth procedures: The aforementioned cell lines were thawed in a 37.0 water bath with gentle agitation. The vials were decontaminated and the cells were added drop wise to 9 ml of their prospective culture media while gently mixing. The cell suspension was centrifuged at 1,000 rpm for five minutes. The supernatant was carefully removed and the cell pellet was resuspended in 5.0 ml of media. Each cell line was checked for viability using a hemocytometer and a cell count/ml was calculated. Nine plates were seeded of each cell line at a total of 1.0×10^6 cells/100 mm plates. Once the plates reached 30% confluency, nine plates of each cell line were treated with 8.26 μg/ml (4.95 μM) of p1978 peptide and a set of nine control plates were treated with 1.0 ml of phosphate buffered saline (PBS). They were incubated and harvested by trypsinization in 48 hours. The cells from each plate were counted for the total number of cells and were assessed for viability using the trypan blue exclusion test of cell viability. The same procedures were repeated for the higher 16.52 ug/ml (9.88 uM) dose.
(§6) Statistics: Data was tabulated using SPSS statistical software. The outcome variables of this study were total cell count, live cell count and percent viability. To assess these variables, descriptive statistics were employed to compare p1978 treated cells relative to the control cells. The approach consisted mainly of bar charts, mean cell counts and mean percentages. The cellular growth rate was determined by subtracting the resultant or final cell count from its baseline value. The difference was divided by 48 hours the growing time for the cells. The results were expressed in cells/hour.
(§7) A homoscedastic univariate t-test was computed for differences between the treated and the control groups. The arithmetic mean value of the control group was used as the “cut-point” value. The alpha level was p<0.05.

[2] = system: HCC38 breast cancer cell line (triple negative); assay: Cell growth: total and live cell count, trypan blue exclusion viability, 48 hours after seeding with p1978; set-up: key to Total growth rate, Treated / Live growth rate, Treated: N.G. = Negative Growth
Protocol: as §1, §2, §3, §4, §5, §6, §7

in vitro = conditions: human
Protocol: as §1, §2, §3, §4, §5, §6, §7

[3] = system: 184B5 cell line (normal breast tissue cells); assay: in vitro
Protocol: as §1, §2, §3, §4, §5, §6, §7

[4] = AU565, 8.26 ug/ml p1978, 48 hours
[5] = AU565, 8.26 μg/ml p1978, over 48 hours
[6] = AU565, 16.52 μg/ml p1978, 48 hours
[7] = AU565, 16.52 μg/ml p1978, 48 hours, footnote: * represents 10^5
[8] = AU565, 16.52 μg/ml p1978, over 48 hours
[9] = HCC38, 8.26 μg/ml p1978, over 48 hours
[10] = HCC38, 16.52 μg/ml p1978, 48 hours
[11] = HCC38, 16.52 μg/ml p1978, over 48 hours
[12] = 184B5, 8.26 ug/ml p1978, 48 hours
[13] = 184B5, 8.26 μg/ml p1978, over 48 hours
[14] = 184B5, 16.52 ug/ml p1978, 48 hours
[15] = 184B5, 16.52 μg/ml p1978, 48 hours
[16] = 184B5, 16.52 μg/ml p1978, over 48 hours

In the case of PRGPYPPGPLAPPQ [p1978, PRGPYPPGPLAPPQ], the “live cell count higher than control group” value [1, 4] is reported as 11.7%, the “total cell count higher than control group” value [1, 4] is reported as 31.5% and the “Live growth rate, Treated” value [1, 5] is reported as 0.77 10^4 cells/hour. For the same sequence, the “Total growth rate, Treated” value [1, 5] was 1.38 10^4 cells/hour, the “knockdown effect on cell count” value ([1]; AU565, 16.52 ug/ml p1978) was “No knockdown effect” and the “increase in living cell count” value ([1]; AU565, 16.52 ug/ml p1978, 48 hours) was 23.1%. For the same sequence, the “% Live, Treated” value [1, 6] was 75%, the “Live × 10^6 (mean cell count with standard deviation), Treated” value [1, 6] was 1.60 (±0.42) × 10^6 and the “Live × 10^6, Treated - Control” value [1, 6] was 0.30 × 10^6. For the same sequence, the “Total × 10^6 (mean cell count with standard deviation), Treated” value [1, 6] was 2.14 (±0.50) × 10^6, the “Total × 10^6, Treated - Control” value [1, 6] was 0.27 × 10^6 and the “Live, Treated - Baseline” value [1, 7] was 0.24* 10^5. The “Total, Treated - Baseline” value [1, 7] was 0.24* 10^5, the “Live growth rate, Treated” value [1, 8] was 0.50 10^4 cells/hour and the “Total growth rate, Treated” value [1, 8] was 0.50 10^4 cells/hour. The “percent viability, treated” value ([1]; human, 48 hours, 8.26 ug/ml) was 61%, the “reduction of total cell count versus control” value ([2]; HCC38, 8.26 ug/ml p1978, 48 hours) was 20.8% and the “reduction of living cell count versus control” value ([2]; HCC38, 8.26 ug/ml p1978, 48 hours, t=−3.25, p 0.08) was 33.2%. For the same sequence, the “Live growth rate, Treated” value [2, 9] was “N.G”, the “Total growth rate, Treated” value [2, 9] was “N.G” and the “growth rate difference, treated versus control” value ([2]; HCC38, 16.52 ug/ml p1978) was −38%. The “average total number of cells higher in control than in treated (knockdown effect)” value ([2]; HCC38, 16.52 ug/ml p1978, 48 hours) was 22.4%, the “% Live, Treated” value [2, 10] was 92% and the “Live × 10^6 (mean cell count with standard deviation), Treated” value [2, 10] was 1.87 (±0.43) × 10^6. For the same sequence, the “Live × 10^6, Treated - Baseline” value [2, 10] was 1.10 × 10^6, the “Live × 10^6, Treated - Control” value [2, 10] was −0.67 × 10^6 and the “Total × 10^6 (mean cell count with standard deviation), Treated” value [2, 10] was 2.03 (±0.62) × 10^6. For the same sequence, the “Total × 10^6, Treated - Baseline” value [2, 10] was 1.03 × 10^6, the “Total × 10^6, Treated - Control” value [2, 10] was −0.61 × 10^6 and the “decrease in the number of living cells as compared to the control” value ([2]; HCC38, 16.52 ug/ml p1978, 48 hours, t=−3.08, p<0.05) was 37.9%. For the same sequence, the “Live growth rate, Treated” value [2, 11] was 2.29 10^4 cells/hour, the “Total growth rate, Treated” value [2, 11] was 2.16 10^4 cells/hour and the viability at 48 hours, 8.26 μg/ml (in vitro) was 91%. For the same sequence, the viability at 48 hours, 16.52 μg/ml (in vitro) was 95 to 98%, the “difference in growth rate between the treated and the controls” value ([3]; 184B5, 8.26 ug/ml p1978) was “almost negligible difference” and the “higher living cell count for the treated cells as compared to the control” value [3, 12] was 3.5%. For the same sequence, the “higher total cell count for the treated cells as compared to the control” value [3, 12] was 7.5%, the “Live growth rate, Treated” value [3, 13] was 0.59 10^4 cells/hour and the “Total growth rate, Treated” value [3, 13] was 1.11 10^4 cells/hour. For the same sequence, the “effect on cell viability or growth rate” value ([3]; 184B5, 16.52 ug/ml p1978) was “no effect”, the “increase in the living cell count for the treated cells as compared to the control” value [3, 14] was 63.7% and the “increase in the total cell count for the treated cells as compared to the control” value [3, 14] was 22.4%. The “% Live, Treated” value [3, 15] was 98%, the “Live × 10^6 (mean cell count with standard deviation), Treated” value [3, 15] was 4.82 (±0.75) × 10^6 and the “Live × 10^6, Treated - Baseline” value [3, 15] was 2.57 × 10^6. The “Live × 10^6, Treated - Control” value [3, 15] was 1.00 × 10^6, the “Total × 10^6 (mean cell count with standard deviation), Treated” value [3, 15] was 4.91 (±0.63) × 10^6 and the “Total × 10^6, Treated - Baseline” value [3, 15] was 2.62 × 10^6. The “Total × 10^6, Treated - Control” value [3, 15] was 0.90 × 10^6, the “Live growth rate, Treated” value [3, 16] was 2.77 10^4 cells/hour and the “Total growth rate, Treated” value [3, 16] was 7.83 10^4 cells/hour.
